Measured values from ChEMBL document CHEMBL4052759, “Discovery of DS79182026: A potent orally active hepcidin production inhibitor” (Bioorg Med Chem Lett, 2017).

Tests used:
[1] = biological target: T1, MAP kinase-activated protein kinase 5 (Homo sapiens) (UniProt Q8IW41); assay: Inhibition of PRAK (unknown origin) at 0.078 uM relative to control
T1 sequence (whole entry): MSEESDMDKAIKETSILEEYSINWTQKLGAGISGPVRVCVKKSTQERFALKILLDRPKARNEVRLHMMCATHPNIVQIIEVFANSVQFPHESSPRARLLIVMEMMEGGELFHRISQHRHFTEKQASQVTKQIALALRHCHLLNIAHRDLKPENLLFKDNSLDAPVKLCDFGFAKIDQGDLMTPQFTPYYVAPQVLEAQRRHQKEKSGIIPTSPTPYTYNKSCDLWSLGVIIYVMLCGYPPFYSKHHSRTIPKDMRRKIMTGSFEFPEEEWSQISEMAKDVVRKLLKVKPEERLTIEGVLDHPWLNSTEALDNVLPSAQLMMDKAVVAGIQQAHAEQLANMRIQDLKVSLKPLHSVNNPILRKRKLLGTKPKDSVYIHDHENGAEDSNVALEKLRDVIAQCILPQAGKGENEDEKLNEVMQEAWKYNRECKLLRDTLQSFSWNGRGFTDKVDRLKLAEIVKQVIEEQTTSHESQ

[2] = biological target: Hepatocyte growth factor receptor (Homo sapiens) (UniProt P08581); assay: Inhibition of MET (unknown origin) at 0.49 uM relative to control
[3] = biological target: Rho-associated protein kinase 2 (Homo sapiens) (UniProt O75116); assay: Inhibition of ROCK2 (unknown origin) at 0.49 uM relative to control
[4] = biological target: Ephrin type-B receptor 2 (Homo sapiens) (UniProt P29323); assay: Inhibition of EPHB2 (unknown origin) at 0.49 uM relative to control
[5] = biological target: Serine/threonine-protein kinase 25 (Homo sapiens) (UniProt O00506); assay: Inhibition of YSK (unknown origin) at 0.49 uM relative to control
[6] = biological target: MAP kinase-activated protein kinase 3 (Homo sapiens) (UniProt Q16644); assay: Inhibition of MAPKAPK3 (unknown origin) at 0.49 uM relative to control
Homo sapiens = species: Homo sapiens; assay: Inhibition of ACK (unknown origin) at 0.49 uM relative to control
[7] = biological target: Leukocyte tyrosine kinase receptor (Homo sapiens) (UniProt P29376); assay: Inhibition of LTK (unknown origin) at 0.49 uM relative to control
[8] = biological target: Platelet-derived growth factor receptor beta (Homo sapiens) (UniProt P09619); assay: Inhibition of PDGFR beta (unknown origin) at 0.49 uM relative to control
[9] = biological target: Serine/threonine-protein kinase PAK 3 (Homo sapiens) (UniProt O75914); assay: Inhibition of PAK3 (unknown origin) at 0.49 uM relative to control
[10] = biological target: Serine/threonine-protein kinase BRSK1 (Homo sapiens) (UniProt Q8TDC3); assay: Inhibition of BRSK1 (unknown origin) at 0.49 uM relative to control
[11] = biological target: CDK4/Cyclin D3 (Homo sapiens) (UniProt P11802+P30281); assay: Inhibition of CDK4/CyclinD3 (unknown origin) at 0.49 uM relative to control; type: protein-complex assay
[12] = biological target: Vascular endothelial growth factor receptor 2 (Homo sapiens) (UniProt P35968); assay: Inhibition of KDR (unknown origin) at 0.49 uM relative to control
[13] = test system: Receptor-type tyrosine-protein kinase FLT3 (Homo sapiens), P36888 [D835Y]; assay: Inhibition of Flt3 D835Y mutant (unknown origin) at 0.49 uM relative to control
[14] = biological target: Aurora kinase C (Homo sapiens) (UniProt Q9UQB9); assay: Inhibition of AurC (unknown origin) at 0.49 uM relative to control
[15] = test system: Proto-oncogene tyrosine-protein kinase receptor Ret (Homo sapiens), P07949 [Y791F]; assay: Inhibition of RET Y791F mutant (unknown origin) at 0.49 uM relative to control
[16] = biological target: Mitogen-activated protein kinase 11 (Homo sapiens) (UniProt Q15759); assay: Inhibition of p38-beta2 (unknown origin) at 0.49 uM relative to control
[17] = biological target: Casein kinase I isoform delta (Homo sapiens) (UniProt P48730); assay: Inhibition of CK1-delta (unknown origin) at 0.45 uM relative to control
[18] = biological target: MAP kinase-interacting serine/threonine-protein kinase 1 (Homo sapiens) (UniProt Q9BUB5); assay: Inhibition of MNK1 (unknown origin) at 0.45 uM relative to control
[19] = biological target: Proto-oncogene tyrosine-protein kinase Src (Homo sapiens) (UniProt P12931); assay: Inhibition of SRC (unknown origin) at 0.45 uM relative to control
[20] = biological target: Calcium/calmodulin-dependent protein kinase type 1 (Homo sapiens) (UniProt Q14012); assay: Inhibition of CaMK1a (unknown origin) at 0.45 uM relative to control
[21] = biological target: Platelet-derived growth factor receptor alpha (Homo sapiens) (UniProt P16234); assay: Inhibition of PDGFR alpha (unknown origin) at 0.45 uM relative to control
[22] = test system: Mast/stem cell growth factor receptor Kit (Homo sapiens), P10721 [T670I]; assay: Inhibition of KIT T670I mutant (unknown origin) at 0.45 uM relative to control
[23] = test system: Tyrosine-protein kinase ABL1 (Homo sapiens), P00519 [E255K]; assay: Inhibition of ABL1 E255K mutant (unknown origin) at 0.45 uM relative to control
[24] = biological target: T2, Interleukin-1 receptor-associated kinase 4 (Homo sapiens) (UniProt Q9NWZ3); assay: Inhibition of IRAK4 (unknown origin) at 0.45 uM relative to control
T2 sequence (whole entry): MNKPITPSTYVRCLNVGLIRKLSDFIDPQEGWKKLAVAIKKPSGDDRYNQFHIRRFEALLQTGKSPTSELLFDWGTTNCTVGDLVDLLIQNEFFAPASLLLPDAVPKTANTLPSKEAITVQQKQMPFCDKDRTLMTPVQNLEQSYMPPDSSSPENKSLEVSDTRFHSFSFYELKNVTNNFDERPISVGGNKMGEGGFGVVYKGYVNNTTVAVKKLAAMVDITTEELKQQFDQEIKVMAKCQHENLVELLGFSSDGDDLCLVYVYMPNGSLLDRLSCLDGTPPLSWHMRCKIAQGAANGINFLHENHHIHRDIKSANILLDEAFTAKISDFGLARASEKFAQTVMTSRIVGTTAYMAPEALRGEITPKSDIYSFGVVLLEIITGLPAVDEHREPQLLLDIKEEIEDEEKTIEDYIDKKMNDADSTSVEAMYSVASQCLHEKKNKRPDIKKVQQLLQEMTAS

[25] = biological target: Tyrosine-protein kinase Lck (Homo sapiens) (UniProt P06239); assay: Inhibition of LCK (unknown origin) at 0.45 uM relative to control
Sequence of Tyrosine-protein kinase Lck (Homo sapiens) (P06239 2-509 limits assumed): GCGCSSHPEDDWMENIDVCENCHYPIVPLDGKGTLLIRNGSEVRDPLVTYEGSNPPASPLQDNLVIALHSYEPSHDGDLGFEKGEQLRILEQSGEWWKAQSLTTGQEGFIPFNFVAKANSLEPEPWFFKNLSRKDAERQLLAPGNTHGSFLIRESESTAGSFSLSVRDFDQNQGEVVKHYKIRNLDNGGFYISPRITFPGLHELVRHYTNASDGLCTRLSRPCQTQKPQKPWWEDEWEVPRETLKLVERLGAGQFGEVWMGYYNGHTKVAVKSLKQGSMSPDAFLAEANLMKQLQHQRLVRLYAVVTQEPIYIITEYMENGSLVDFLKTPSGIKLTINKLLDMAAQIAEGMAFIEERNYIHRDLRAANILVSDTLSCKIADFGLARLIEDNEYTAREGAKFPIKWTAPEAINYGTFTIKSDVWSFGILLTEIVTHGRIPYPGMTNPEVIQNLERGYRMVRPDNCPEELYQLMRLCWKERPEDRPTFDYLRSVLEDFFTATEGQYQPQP

Sequence of Ephrin type-B receptor 2 (Homo sapiens) (P29323 whole entry): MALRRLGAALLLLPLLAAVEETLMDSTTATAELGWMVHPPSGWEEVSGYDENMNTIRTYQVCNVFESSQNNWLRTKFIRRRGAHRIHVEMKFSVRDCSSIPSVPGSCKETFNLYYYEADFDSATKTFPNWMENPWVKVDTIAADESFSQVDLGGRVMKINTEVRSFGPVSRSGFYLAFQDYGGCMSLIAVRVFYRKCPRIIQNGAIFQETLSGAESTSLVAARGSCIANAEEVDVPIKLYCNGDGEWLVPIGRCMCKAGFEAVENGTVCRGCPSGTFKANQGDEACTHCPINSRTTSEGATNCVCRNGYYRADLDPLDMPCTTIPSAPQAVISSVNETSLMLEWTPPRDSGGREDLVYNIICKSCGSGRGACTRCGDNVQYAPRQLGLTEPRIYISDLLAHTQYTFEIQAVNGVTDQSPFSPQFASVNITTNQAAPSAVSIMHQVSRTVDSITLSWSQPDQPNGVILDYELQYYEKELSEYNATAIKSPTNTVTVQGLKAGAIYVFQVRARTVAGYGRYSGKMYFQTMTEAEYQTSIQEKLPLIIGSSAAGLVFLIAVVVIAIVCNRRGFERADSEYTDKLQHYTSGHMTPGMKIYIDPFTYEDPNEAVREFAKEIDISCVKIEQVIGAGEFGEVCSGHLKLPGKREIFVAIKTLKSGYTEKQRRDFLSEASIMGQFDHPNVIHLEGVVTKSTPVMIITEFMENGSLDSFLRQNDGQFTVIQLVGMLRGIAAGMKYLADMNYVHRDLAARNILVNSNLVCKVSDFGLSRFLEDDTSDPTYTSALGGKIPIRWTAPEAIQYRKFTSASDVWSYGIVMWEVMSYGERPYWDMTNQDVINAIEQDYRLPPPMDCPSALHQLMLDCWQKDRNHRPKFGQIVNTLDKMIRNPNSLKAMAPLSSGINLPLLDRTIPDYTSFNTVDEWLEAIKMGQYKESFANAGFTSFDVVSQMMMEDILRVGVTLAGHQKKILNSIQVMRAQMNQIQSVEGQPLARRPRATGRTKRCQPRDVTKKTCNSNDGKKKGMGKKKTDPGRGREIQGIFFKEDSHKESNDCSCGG
Sequence of Rho-associated protein kinase 2 (Homo sapiens) (O75116 whole entry, looked up): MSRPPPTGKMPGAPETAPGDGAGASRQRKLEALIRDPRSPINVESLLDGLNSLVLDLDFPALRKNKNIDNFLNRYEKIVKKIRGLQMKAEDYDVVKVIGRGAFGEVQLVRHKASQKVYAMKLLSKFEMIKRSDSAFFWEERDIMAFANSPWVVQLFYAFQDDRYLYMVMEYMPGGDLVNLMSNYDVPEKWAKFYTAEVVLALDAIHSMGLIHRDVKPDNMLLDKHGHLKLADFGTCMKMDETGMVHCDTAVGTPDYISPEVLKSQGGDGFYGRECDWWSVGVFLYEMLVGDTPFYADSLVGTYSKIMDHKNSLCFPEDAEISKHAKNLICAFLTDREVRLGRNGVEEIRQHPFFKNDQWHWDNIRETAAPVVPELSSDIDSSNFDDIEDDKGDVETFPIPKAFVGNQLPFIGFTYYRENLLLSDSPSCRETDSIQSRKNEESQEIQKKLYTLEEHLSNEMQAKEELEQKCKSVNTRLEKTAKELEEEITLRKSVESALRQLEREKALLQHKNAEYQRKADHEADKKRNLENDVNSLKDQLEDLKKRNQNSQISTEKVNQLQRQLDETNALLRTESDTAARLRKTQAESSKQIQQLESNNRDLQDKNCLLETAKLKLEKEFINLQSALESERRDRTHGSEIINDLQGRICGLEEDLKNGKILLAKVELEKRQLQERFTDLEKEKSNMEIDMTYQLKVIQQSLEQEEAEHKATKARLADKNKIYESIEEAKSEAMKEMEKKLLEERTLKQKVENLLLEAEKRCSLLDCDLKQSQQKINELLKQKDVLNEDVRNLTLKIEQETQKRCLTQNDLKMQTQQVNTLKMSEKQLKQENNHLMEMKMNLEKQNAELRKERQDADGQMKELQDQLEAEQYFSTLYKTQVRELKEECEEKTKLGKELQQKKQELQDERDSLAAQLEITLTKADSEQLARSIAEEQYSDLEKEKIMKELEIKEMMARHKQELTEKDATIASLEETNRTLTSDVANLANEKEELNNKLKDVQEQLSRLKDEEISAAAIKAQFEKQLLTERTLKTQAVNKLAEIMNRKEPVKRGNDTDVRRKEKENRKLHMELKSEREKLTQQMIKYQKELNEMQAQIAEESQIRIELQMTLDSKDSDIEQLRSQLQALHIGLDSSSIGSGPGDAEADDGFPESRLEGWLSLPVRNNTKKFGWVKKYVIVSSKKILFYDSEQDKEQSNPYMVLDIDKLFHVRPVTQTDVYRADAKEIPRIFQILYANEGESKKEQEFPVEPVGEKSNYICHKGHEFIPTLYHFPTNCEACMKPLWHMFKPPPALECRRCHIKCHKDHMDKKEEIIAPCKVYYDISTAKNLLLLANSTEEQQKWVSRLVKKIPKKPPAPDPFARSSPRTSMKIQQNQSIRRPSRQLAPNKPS
Sequence of Casein kinase I isoform delta (Homo sapiens) (P48730 whole entry, looked up, canonical isoform): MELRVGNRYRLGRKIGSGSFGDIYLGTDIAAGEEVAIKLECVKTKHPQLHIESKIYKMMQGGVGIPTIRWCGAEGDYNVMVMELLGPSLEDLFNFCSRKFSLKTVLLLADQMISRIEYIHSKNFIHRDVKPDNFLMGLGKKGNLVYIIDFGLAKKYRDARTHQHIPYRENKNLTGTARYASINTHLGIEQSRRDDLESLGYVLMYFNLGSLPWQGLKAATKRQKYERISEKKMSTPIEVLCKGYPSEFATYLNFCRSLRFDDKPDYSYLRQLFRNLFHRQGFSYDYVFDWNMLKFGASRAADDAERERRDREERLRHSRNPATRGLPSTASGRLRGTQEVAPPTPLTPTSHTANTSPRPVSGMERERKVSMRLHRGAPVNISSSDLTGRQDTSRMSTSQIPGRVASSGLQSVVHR
Sequence of Platelet-derived growth factor receptor beta (Homo sapiens) (P09619 whole entry): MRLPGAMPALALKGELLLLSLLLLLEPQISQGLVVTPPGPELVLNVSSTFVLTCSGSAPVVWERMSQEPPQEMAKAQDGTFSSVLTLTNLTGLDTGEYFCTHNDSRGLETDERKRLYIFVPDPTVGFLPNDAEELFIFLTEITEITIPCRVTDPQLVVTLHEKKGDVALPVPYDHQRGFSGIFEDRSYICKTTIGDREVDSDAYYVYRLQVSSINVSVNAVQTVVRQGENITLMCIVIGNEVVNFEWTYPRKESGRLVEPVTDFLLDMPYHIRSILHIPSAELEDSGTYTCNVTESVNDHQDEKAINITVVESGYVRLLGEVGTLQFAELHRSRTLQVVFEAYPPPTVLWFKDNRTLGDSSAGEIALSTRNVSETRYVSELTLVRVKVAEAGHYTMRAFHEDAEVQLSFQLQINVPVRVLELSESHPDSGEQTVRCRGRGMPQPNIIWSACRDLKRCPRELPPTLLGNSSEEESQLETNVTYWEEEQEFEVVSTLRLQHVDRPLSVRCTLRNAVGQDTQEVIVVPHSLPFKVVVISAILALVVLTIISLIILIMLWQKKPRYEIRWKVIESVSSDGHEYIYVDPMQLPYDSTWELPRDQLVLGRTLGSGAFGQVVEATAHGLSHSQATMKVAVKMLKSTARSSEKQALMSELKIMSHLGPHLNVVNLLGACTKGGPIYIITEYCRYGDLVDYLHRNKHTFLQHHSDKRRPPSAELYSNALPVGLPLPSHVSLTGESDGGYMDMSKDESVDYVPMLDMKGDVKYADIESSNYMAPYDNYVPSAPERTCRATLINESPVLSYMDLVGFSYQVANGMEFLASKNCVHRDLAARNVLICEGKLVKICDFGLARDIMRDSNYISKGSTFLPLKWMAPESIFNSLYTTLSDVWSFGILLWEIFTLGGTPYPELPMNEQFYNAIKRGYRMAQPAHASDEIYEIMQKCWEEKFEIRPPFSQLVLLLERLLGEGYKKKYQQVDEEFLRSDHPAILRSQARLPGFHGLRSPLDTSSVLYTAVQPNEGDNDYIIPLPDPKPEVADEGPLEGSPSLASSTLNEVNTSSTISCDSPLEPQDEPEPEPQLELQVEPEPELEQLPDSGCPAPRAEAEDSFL
Sequence of Aurora kinase C (Homo sapiens) (Q9UQB9 whole entry): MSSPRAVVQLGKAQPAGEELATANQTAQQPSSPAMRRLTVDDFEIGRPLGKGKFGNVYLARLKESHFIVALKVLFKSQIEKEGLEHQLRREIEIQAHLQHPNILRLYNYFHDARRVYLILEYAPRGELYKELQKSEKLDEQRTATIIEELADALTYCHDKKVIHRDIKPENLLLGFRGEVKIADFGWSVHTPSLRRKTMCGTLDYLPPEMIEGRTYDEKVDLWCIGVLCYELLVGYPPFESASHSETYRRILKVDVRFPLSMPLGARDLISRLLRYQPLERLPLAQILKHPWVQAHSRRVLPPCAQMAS

COC(=O)Nc1noc2cc(-c3c(-c4ccccn4)n[nH]c3C)ccc12
inhibition [1]: -3%

Cc1[nH]nc(C2CC2)c1-c1ccc2c(NC(=O)C3CC3)noc2c1
inhibition [2]: 7.3% | inhibition [3]: 8.7% | inhibition [4]: 5.3% | inhibition [5]: 4.3% | inhibition [6]: -7.3% | inhibition (Homo sapiens): 2.3% | inhibition [7]: -3.3% | inhibition [8]: 20% | inhibition [9]: -4.3% | inhibition [10]: 1.7% | inhibition [11]: -6.7% | inhibition [12]: 5% | inhibition [13]: 15.3% | inhibition [14]: -3.3% | inhibition [15]: 0% | inhibition [16]: 0.7%

Cc1n[nH]c(C)c1-c1ccc2c(NC(=O)c3ccc(N4CCN(C)CC4)cc3)n[nH]c2c1
inhibition [17]: 5% | inhibition [18]: 6.7% | inhibition [19]: 51.7% | inhibition [20]: -0.7% | inhibition [21]: 11.7% | inhibition [22]: -10% | inhibition [23]: 72.7% | inhibition [24]: 11% | inhibition [25]: 32.3%
